# Experimental data: patent US10899639B2, “Composition and method for inhibiting microbial adhesion on surfaces” (SOLENIS TECHNOLOGIES, L.P., priority 2017, dated 2021)
# Test system: Biofilms grown on stainless steel 316 coupons
# Assay: biofilm reduction on stainless steel 316 coupons from CDC Biofilm reactor, viable cell plating
# Type: cell-based
# Details: two hours at 28° C. with shaking
# Experimental: Biofilms were grown on stainless steel 316 coupons in a CDC Biofilm reactor using […] minimal salts growth media for a period of twenty-four hours. […] A control was done with […] media. After the biofilms were grown, each coupon from the rods in the CDC reactor was unscrewed and dropped into a well of the plate. The plate was then incubated for two hours at 28° C. with shaking. Following the incubation, the coupons were removed from the wells and placed into 5 mL of phosphate-buffered saline (PBS) and sonicated for six minutes. Viable cells released into the fluid were then determined by a plating method. The results are recorded as the percent reduction in cell counts relative to the control.
substance,measurement,setting,value
sodium dodecylbenzene sulfonate [Biosoft D-40],percent reduction in cell counts relative to the control,LAS 40 ppm actives,41.83%
same,percent reduction in cell counts relative to the control,LAS 100 ppm actives,81.58%
